Columns and labels:
HUVE cells [1] = experiment: HUVE cell migration, modified Boyden chamber; type: cell-based, human
Experimental: (§1) The migration assay of HUVE and HMEC-1 cells in modified Boyden chambers was adapted from previously described procedures (Murohara et al., Thromb. Vasc. Biol., 19: 1156-61 (1999), Malinda et al., FASEB J., 13: 53-62 (1999)). In brief, Biocoat Cell Environment control inserts (8 micron pore size; Becton Dickinson) were coated with 0.1% gelatin (Sigma) for at least 1 hour at 37° C. and air dried. Lower chambers contained 0.7 ml RPMI+0.1% BSA, to which 20 ng/ml HGF and/or 300 nM Grb2 inhibitors were added. Cells were pre-treated with the indicated concentrations of Grb2 inhibitors for 18-24 hours, trypsinized, washed twice in RPMI+0.1% BSA, added to upper chambers (5×10^4 cells/well) with or without inhibitors in a final volume of 0.5 ml, and incubated for 4 h at 37° C. Cells on the upper surface of each filter were removed with a cotton swab, while cells that had traversed to the bottom surface of the filter were fixed and stained using Diff-Quik (Dade Diagnostics) and counted using a 10× objective. Mean values from 4 randomly selected fields (1×1.4 mm) were calculated for each of triplicate wells per experimental condition. Shown in FIG. 6 is the ratio of growth factor-treated to control migrating cells designated on the y-axis as “Migration (Fold Increase)” or as the mean number of cells per optical field in FIGS. 8-11.

HUVE cells [2] = experiment: HUVE cell proliferation; type: cell-based, human; settings: growth factor alone: HGF 25 ng/ml, VEGF 10 ng/ml, bFGF 5 ng/ml
Experimental: HUVE or HMVE cells were seeded per triplicate in type I collagen-coated 48-well plates (Biocoat) (3000 cells/well) in […] of complete EGM-Bullet Kit medium (BioWhittaker, Walkersville, Md.), allowed to attach for 4 hr and incubated overnight with or without the indicated concentrations of peptide 2. The cultures were rinsed twice in serum-free medium and incubated with EBM medium (BioWhittaker) supplemented with 50 μg/ml heparin, 50 μg/ml ascorbic acid and 10% FCS. After either 4 days (HUVE) or 5 days (HMVE), cells were harvested with trypsin/EDTA and counted with an hemocytometer. The mean number of cells per ml was calculated from 3 independent measures for each of triplicate wells per experimental condition and compared to controls using the Student's unpaired t-test. Results set forth in FIG. 12 are described as the ratio of growth factor-treated to control proliferating cells designated on the y-axis as “Proliferation (Fold Increase)”.

TAC-2 cells = experiment: Epithelial tube formation assay, TAC-2 cells in collagen gels; type: cell-based; settings: for HGF-induced elongation of epithelial tubes (cord length): HGF 20 ng/ml, 3 days; for concentration at which a sub-maximal inhibitory effect is already observed: HGF-induced tube elongation
Experimental: TAC-2 cells were suspended in three-dimensional collagen gels at 1×10^4 cells/ml in collagen and incubated in complete medium containing HGF and/or Grb2 inhibitors as indicated. After 3 days, the cultures were fixed with 2.5% glutaraldehyde in 0.1 M cacodylate buffer, and at least 3 randomly selected fields per experimental condition in each of 3 separate experiments were digitally recorded with brightfield microscopy. The total length of the cords in each individual colony present in each optical field was measured with IPLab. Cord length was considered as “0” in: a) colonies with a spheroidal shape, and b) slightly elongated structures in which the length to diameter ratio was less than 2. The mean values for each experimental condition were compared to controls using the Student's unpaired t-test. Results in FIG. 5 are described as mean total cord length (in μm) per field.

HMEC-1 cells [3] = experiment: HMEC-1 cell migration, modified Boyden chamber; type: cell-based, human
Experimental: as §1

HMEC-1 cells [4] = experiment: Endothelial cell tubulogenesis assay on collagen (HMEC-1 collagen invasion); type: cell-based, human
Experimental: HMEC-1 cell tubulogenesis assay on collagen gels was adapted from a previously described procedure (Montesano et al., Cell, 42: 469-77 (1985), Pepper et al., Exp. Cell Res., 204: 356-63 (1993)). Cells were seeded onto collagen gels cast in 16-mm wells (2.5×10^4 cells/well) and grown to confluence in reduced growth medium (5% FCS and 150 μg/ml ECGS). At confluence cells were pre-treated with or without Grb2 inhibitors for 24 hours, after which time medium was replaced by fresh medium supplemented with or without the indicated concentration of inhibitors and/or 20 ng/ml HGF. Medium and compounds were changed every day. After 24 hours, the cultures were fixed in situ, and 5 randomly selected optical fields per experimental condition in each of three separate experiments were digitally recorded under phase contrast microscopy using a 20× phase contrast objective, by focusing 20 μm beneath the surface of the gel. Invasion was quantitated using IPLab software (Scanalytics, Fairfax, Va.) by measuring the total length of all cellular structures that had penetrated beneath the surface monolayer either as apparently single cells or in the form of cell cords. Values were compared using Student's unpaired t-test and a significant value was taken at P<0.001. Results set forth in FIG. 7 are the mean total length (in μm) per field.

HUVECs = experiment: HUVE cell tubulogenesis assay on Matrigel; type: cell-based, human
Experimental: The HUVE tube formation assay was performed as previously described (Grant et al., J. Cell. Physiol., 153: 614-625 (1992)). Briefly, 96-well plates were coated with 90 μl of Matrigel (10 mg/ml) (Collaborative Research) (Baatout, supra) and incubated at 37° C. for 30 min to promote gelling. 10,000 HUVECs were resuspended in reduced growth medium (serum concentration 10% and 5 U/ml heparin) and added to each well with the indicated reagents in a final volume of 100 μl. After 18 h, the plates were fixed with Diff-Quik, and at least 4 randomly selected fields per experimental conditions were digitally recorded under bright field illumination using a 10× objective. The mean additive length of the cords present in each optical field was measured using IPLab and compared to controls using the Student's unpaired t-test.

MDCK cells = experiment: Extracellular matrix invasion assay, MDCK cells in collagen gels; type: cell-based, canine; settings: peptide 100 nM
Experimental: MDCK cell invasion into three-dimensional collagen gels was analyzed as previously described. Briefly, type I collagen (1.5 mg/ml; Cohesion Technologies) was mixed with 10×MEM and sodium bicarbonate (11.76 mg/ml) at a ratio of 8:1:1 (vol:vol:vol) on ice, and 0.4 ml aliquots were dispensed into 16-mm tissue culture wells (Nunc), and allowed to gel at 37° C. for 20 min. Cells were seeded onto gels (1×10^4 cells/well) in 0.4 ml of growth medium containing HGF and/or peptides 1 or 4 as indicated. After 5 days, cells were fixed in situ in 2.5% glutaraldehyde in 0.1 M sodium cacodylate buffer (pH 7.4), and cells that had invaded the gel below the surface monolayer in ten randomly selected fields (1×1.4 mm) were counted microscopically using a 20× phase contrast objective. Depth of cellular invasion into the collagen gel was quantitated in the same ten fields per treatment group using a calibrated fine focusing micrometer. Values were compared using the Student's unpaired t-test and a significant value was taken as P<0.001. Results in Table 1 are shown as the mean number of invading cells/field or mean invasion depth/cell in microns+standard error of the mean.
MDCK cells were left untreated (Control), treated with HGF (10 ng/ml), or HGF+peptide 2 or 4 (100 nM), and invasion into collagen matrices was quantitated microscopically as described above. Values are the mean of at least 10 randomly selected fields±standard error of the mean. Epithelial Tube Formation Assay

NIH 3T3 fibroblasts = experiment: NIH 3T3 fibroblast migration, modified Boyden chamber; type: cell-based; settings: PDGF-BB 50 ng/ml alone
Experimental: as §1
PDGF is implicated in different biological processes such vascular remodeling, wound healing and cancer (for reviews, see Bornfeldt et al., Ann N Y Acad. Sci., 766:416-30, 1995; Gendron, Surv. Ophthalmol., 44:184-5, 1999). Addition of 50 ng/ml PDGF-BB to NIH 3T3 fibroblasts incubated in a modified Boyden chamber results in a dramatic, 20-fold increase in cell migration. […] This observation opens a potential therapeutical use of the Grb2 inhibitor compounds in the treatment of diseases such as cancer, wound healing disorders, vascular complications of diabetes mellitus, vascular nephropathies, and diseases with occurrence of fibrosis.

[5] = peptide 300 nM, no growth factor

With CCCCCCCCCCCCCC(=O)O[C@@H]1[C@@H](C)[C@@]2(O)[C@@H](C=C(CO)C[C@]3(O)C(=O)C(C)=C[C@@H]23)[C@@H]2C(C)(C)[C@]12OC(C)=O [PMA, phorbol myristate acetate, reference compound] as the molecule, how does the “increase of cell migration” value (HUVE cells [1]; PMA 40 ng/ml alone) read?
The value was 300%.

For VEGF, which “increase in the mean number of HUVE cells per ml (proliferation)” value (shortened to “increase … per ml (proliferation)”) (HUVE cells [2]) is on record?
Its value is 2 fold.

Which results are given for NC(=O)C[C@H](NC(=O)C1(NC(=O)[C@H](Cc2ccc(CP(=O)(O)O)cc2)NC(=O)C(=O)O)CCCCC1)C(=O)NCCCc1cccc2ccccc12 [peptide 1, oxalyl-Pmp-Ac6c-Asn-NH-(3-naphthalen-1-yl-propyl)]?
HGF-induced elongation of epithelial tubes (cord length) (TAC-2 cells): significantly (p<0.0001) abrogate; concentration at which a sub-maximal inhibitory effect is already observed (TAC-2 cells): 30 nM; elongation and branching of duct-like structures (TAC-2 cells; co-addition with HGF 20 ng/ml): abrogated the elongation and branching of duct-like structures; HGF-induced increase on cell motility (HMEC-1 cells [3]; peptide 300 nM, HGF 20 ng/ml): practically reverted to basal levels; basal levels of endothelial cell motility (HMEC-1 cells [3]; [5]): did not significantly alter; bFGF-induced HUVEC migration (HUVE cells [1]; peptide 300 nM): complete blockade; HGF-induced increase on cell motility (HUVE cells [1]; peptide 300 nM, HGF 20 ng/ml): practically reverted to basal levels; basal levels of endothelial cell motility (HUVE cells [1]; [5]): did not significantly alter; collagen invasion induced by HGF (HMEC-1 cells [4]; peptide 30-300 nM, HGF 20 ng/ml): suppressed; mean length of the cords per optical field (HUVECs; HGF/NK1 300 ng/ml, peptide 1 μM, 18 h): 2502.8±108 μm; extent of cord formation (HUVECs; peptide 1 μM + HGF/NK1): markedly reduced the extent of cord formation; decrease in mean cord length vs HGF/NK1 alone (HUVECs; peptide 1 μM + HGF/NK1 300 ng/ml): 30%

How did the “Mean Invading Cells/Field” value (MDCK cells; HGF 10 ng/ml, 5 days) turn out when “HGF: hepatocyte growth factor, recombinant human” was run?
The value was 29.7 ± 2.6.

What about the “Mean Invasion Depth/Cell” value (MDCK cells; HGF 10 ng/ml, 5 days) of the same molecule?
Its value is 35.6 ± 2.7 μm.

What about the “increase on cell motility induced by growth factor” value (HMEC-1 cells [3]; HGF 20 ng/ml alone) of the same molecule?
Its value is 5.5 fold.

What about the “increase on cell motility induced by growth factor” value (HUVE cells [1]; HGF 20 ng/ml alone) of the same molecule?
Its value is 3.5 fold.

And the “increase in collagen invasion” value (HMEC-1 cells [4]; HGF 20 ng/ml alone)?
Its value is 6 fold.

And the “increase … per ml (proliferation)” value (HUVE cells [2])?
The value was 2.3 fold.

What does the source list for CC(=O)N[C@@H](Cc1ccc(C(C(=O)O)C(=O)O)cc1)C(=O)NC1(C(=O)N[C@@H](CC(N)=O)C(=O)NCCCc2cccc3ccccc23)CCCCC1 [peptide 3, (N-acetyl-4-malonyl)-Phe-Ac6c-Asn-NH-(3-naphthalen-1-yl-propyl)]?
reduction of the mean depth of invasion per cell (MDCK cells; HGF-stimulated): at least 50%; reduction of the number of invading cells (MDCK cells; HGF-stimulated): at least 50%; HGF-induced elongation of epithelial tubes (cord length) (TAC-2 cells): significantly (p<0.0001) abrogate; concentration at which a sub-maximal inhibitory effect is already observed (TAC-2 cells): 30 nM

“bFGF: human recombinant basic fibroblast growth factor” was tested. Which “increase … per ml (proliferation)” value (HUVE cells [2]) did it give?
The value was 4.1 fold.

B1: PDGF-BB: platelet-derived growth factor used to stimulate NIH 3T3 migration (protein, UniProt P01127 82-190, looked up)
Platelet-derived growth …: SLGSLTIAEPAMIAECKTRTEVFEISRRLIDRTNANFLVWPPCVEVQRCSGCCNNRNVQCRPTQVQLRPVQVRKIEIVRKKPIFKKATVTLEDHLACKCETVAAARPVT
modifications: homodimer
notes: platelet-derived growth factor used to stimulate NIH 3T3 migration
With B1 as the molecule, how does the “increase in cell migration” value (NIH 3T3 fibroblasts) read?
Its value is 20 fold.
